Results taken from ChEMBL document CHEMBL1158165, “Correlation between reduction potentials and inhibitions of Epstein-Barr virus activation by anthraquinone derivatives” (Bioorg Med Chem Lett, 2008).

What was measured:
Format in all cases: cell-based
Raji [1] = experiment: Inhibition of 12-O-tetradecanoylphorbol-13-acetate induced EBV-early antigen activation in human Raji cells; details: human gammaherpesvirus 4
[2] = Cytotoxicity against human Raji cells assessed as cell viability at 1000 molar ratio; details: read-out: Activity
Raji [3] = experiment: Inhibition of 12-O-tetradecanoylphorbol-13-acetate induced EBV-early antigen activation in human Raji cells at 1000 molar ratio relative to control; parameters: scale not given: the % may be the effect or the level left; details: human gammaherpesvirus 4
Raji [4] = experiment: Inhibition of 12-O-tetradecanoylphorbol-13-acetate induced EBV-early antigen activation in human Raji cells at 500 molar ratio relative to control; parameters: scale not given: the % may be the effect or the level left; details: human gammaherpesvirus 4
Raji [5] = experiment: Inhibition of 12-O-tetradecanoylphorbol-13-acetate induced EBV-early antigen activation in human Raji cells at 100 molar ratio relative to control; parameters: scale not given: the % may be the effect or the level left; details: human gammaherpesvirus 4
Raji [6] = experiment: Inhibition of 12-O-tetradecanoylphorbol-13-acetate induced EBV-early antigen activation in human Raji cells at 10 molar ratio relative to control; parameters: scale not given: the % may be the effect or the level left; details: human gammaherpesvirus 4

Compound | logIC50 (Raji [1]) | viability at 1000 molar ratio [2] [%] | Activity (Raji [3]) [%] | Activity (Raji [4]) [%] | Activity (Raji [5]) [%] | Activity (Raji [6]) [%]
COc1cc2c(c(O)c1OC)C(=O)c1c(cc(C)c(O)c1OC)C2=O | 2.73 | – | – | – | – | –
Cc1ccc2c(c1O)C(=O)c1ccccc1C2=O | 2.72 | – | – | – | – | –
COc1cc2c(c(O)c1C)C(=O)c1c(O)cc(C)cc1C2=O | 2.48 | 60 | 1.2 | 23.2 | 50 | 93
Cc1cc(O)c2c(c1)C(=O)c1cccc(O)c1C2=O | 2.68 | – | – | – | – | –
COc1cc(C)cc2c1C(=O)c1c(O)cccc1C2=O | 2.82 | – | – | – | – | –
O=C1c2ccccc2C(=O)c2c(O)cccc21 | 2.77 | – | – | – | – | –
COc1c(O)cc2c(c1O)C(=O)c1c(cc(C)c(O)c1OC)C2=O | 2.72 | – | – | – | – | –
COc1cc(O)c2c(c1)C(=O)c1cc(C)cc(O)c1C2=O [PHYSCION] | 2.5 | 60 | 1.5 | 24.7 | 51.1 | 94.2
O=C1c2cccc(O)c2C(=O)c2c(O)cccc21 | 2.78 | – | – | – | – | –
COc1cc2c(c(OC)c1O)C(=O)c1c(ccc(C)c1O)C2=O | 2.55 | – | – | – | – | –
COc1c(O)c(C)cc2c1C(=O)c1c(O)cccc1C2=O [OBTUSIFOLIN] | 2.55 | 60 | 4.3 | 27.8 | 54.9 | 98.7
O=C1c2ccc(O)cc2C(=O)c2ccc(O)cc21 | 2.88 | – | – | – | – | –
O=C1c2ccccc2C(=O)c2ccccc21 | 3.04 | – | – | – | – | –
COc1cc(OC)c2c(c1)C(=O)c1cc(C)cc(O)c1C2=O | 2.5 | 60 | 2.9 | 24.2 | 51.7 | 94.7
COc1cc(O)c2c(c1)C(=O)c1cc(C)cc(OC)c1C2=O | 2.43 | 60 | 0 | 21.3 | 45.3 | 91.8
Cc1cc2c(c(O)c1-c1c(C)cc3c(c1O)C(=O)c1c(O)cccc1C3=O)C(=O)c1c(O)cccc1C2=O | 2.86 | – | – | – | – | –
CC(=O)Oc1cc(OC(C)=O)c2c(c1)C(=O)c1cc(C)cc(OC(C)=O)c1C2=O | 2.67 | – | – | – | – | –

Compound | logIC50 (Raji [1]) | viability at 1000 molar ratio [2] [%] | Activity (Raji [3]) [%] | Activity (Raji [4]) [%] | Activity (Raji [5]) [%] | Activity (Raji [6]) [%]
COc1cc(OC)c2c(c1)C(=O)c1cc(C)cc(OC)c1C2=O | 2.41 | 60 | 0 | 21.1 | 44 | 90.1
COc1cc(C)cc2c1C(=O)c1c(OC)cc(O)cc1C2=O | 2.45 | 60 | 0 | 22 | 47.3 | 92.6
CCc1ccc2c(c1)C(=O)c1ccccc1C2=O | 2.7 | – | – | – | – | –
O=C1c2cccc(O)c2C(=O)c2c(O)cc(CO)cc21 | 2.66 | – | – | – | – | –
COc1cc(C)cc2c1C(=O)c1c(O)cc(O)cc1C2=O [1-O-METHYLEMODIN] | 2.49 | 60 | 1.1 | 24.1 | 49.8 | 94.1
Cc1cc2c(c(O)c1-c1c(C)cc3c(c1O)C(=O)c1c(O)cc(O)cc1C3=O)C(=O)c1c(O)cccc1C2=O | 2.8 | – | – | – | – | –
COc1cc2c(c(OC)c1OC)C(=O)c1c(cc(C)c(O)c1OC)C2=O | 2.73 | – | – | – | – | –
CC(=O)Oc1cc(C)cc2c1C(=O)c1c(OC(C)=O)cc(O)cc1C2=O | 2.7 | – | – | – | – | –
Cc1cc(O)c2c(c1)C(=O)c1cc(O)cc(O)c1C2=O [EMODIN] | 2.48 | 70 | 1.5 | 24.8 | 51.6 | 91
Cc1cc2c(c(O)c1-c1c(C)cc3c(c1O)C(=O)c1c(O)cc(O)cc1C3=O)C(=O)c1c(O)cc(O)cc1C2=O | 2.7 | – | – | – | – | –
CC(=O)Oc1cc(OC(C)=O)c2c(c1)C(=O)c1cc(C(=O)O)cc(OC(C)=O)c1C2=O | 2.66 | – | – | – | – | –
Cc1ccc2c(c1)C(=O)c1ccccc1C2=O | 2.66 | – | – | – | – | –
COc1cc(O)cc2c1C(=O)c1c(O)cc(C)cc1C2=O [QUESTIN] | 2.52 | 60 | 3.7 | 25.6 | 52.8 | 95.6
O=C1c2cccc(O)c2C(=O)c2c1cc(CO)c(-c1c(CO)cc3c(c1O)C(=O)c1c(O)cccc1C3=O)c2O | 2.78 | – | – | – | – | –
Cc1cc(O)c2c(c1)C(=O)c1cc(O)c(-c3c(C)cc4c(c3O)C(=O)c3c(O)cccc3C4=O)c(O)c1C2=O | 2.83 | – | – | – | – | –
CC(=O)Oc1cc(O)cc2c1C(=O)c1c(O)cc(C)cc1C2=O | 2.69 | – | – | – | – | –
Cc1cc(O)c2c(c1)C(=O)c1cc(CO)c(-c3c(O)cc4c(c3O)C(=O)c3c(O)cccc3C4=O)c(O)c1C2=O | 2.8 | – | – | – | – | –
